The results in this text go back to patent US12070455B2, “Thienopyrrole compounds” (Gilead Sciences, Inc., priority 2021, dated 2024).

Each structure is given as a SMILES string.

In assay [1] the target is T1, TLR7 (Homo sapiens, UniProt Q9NYK1).
T1 construct: Human peripheral blood mononuclear cells (PBMCs) consist of lymphocytes, monocytes and dendritic cells that express TLR7, TLR8 and TLR9; endogenous in cells; host or cells: cryopreserved human PBMCs from healthy donors
T1 sequence (Q9NYK1 27-1049): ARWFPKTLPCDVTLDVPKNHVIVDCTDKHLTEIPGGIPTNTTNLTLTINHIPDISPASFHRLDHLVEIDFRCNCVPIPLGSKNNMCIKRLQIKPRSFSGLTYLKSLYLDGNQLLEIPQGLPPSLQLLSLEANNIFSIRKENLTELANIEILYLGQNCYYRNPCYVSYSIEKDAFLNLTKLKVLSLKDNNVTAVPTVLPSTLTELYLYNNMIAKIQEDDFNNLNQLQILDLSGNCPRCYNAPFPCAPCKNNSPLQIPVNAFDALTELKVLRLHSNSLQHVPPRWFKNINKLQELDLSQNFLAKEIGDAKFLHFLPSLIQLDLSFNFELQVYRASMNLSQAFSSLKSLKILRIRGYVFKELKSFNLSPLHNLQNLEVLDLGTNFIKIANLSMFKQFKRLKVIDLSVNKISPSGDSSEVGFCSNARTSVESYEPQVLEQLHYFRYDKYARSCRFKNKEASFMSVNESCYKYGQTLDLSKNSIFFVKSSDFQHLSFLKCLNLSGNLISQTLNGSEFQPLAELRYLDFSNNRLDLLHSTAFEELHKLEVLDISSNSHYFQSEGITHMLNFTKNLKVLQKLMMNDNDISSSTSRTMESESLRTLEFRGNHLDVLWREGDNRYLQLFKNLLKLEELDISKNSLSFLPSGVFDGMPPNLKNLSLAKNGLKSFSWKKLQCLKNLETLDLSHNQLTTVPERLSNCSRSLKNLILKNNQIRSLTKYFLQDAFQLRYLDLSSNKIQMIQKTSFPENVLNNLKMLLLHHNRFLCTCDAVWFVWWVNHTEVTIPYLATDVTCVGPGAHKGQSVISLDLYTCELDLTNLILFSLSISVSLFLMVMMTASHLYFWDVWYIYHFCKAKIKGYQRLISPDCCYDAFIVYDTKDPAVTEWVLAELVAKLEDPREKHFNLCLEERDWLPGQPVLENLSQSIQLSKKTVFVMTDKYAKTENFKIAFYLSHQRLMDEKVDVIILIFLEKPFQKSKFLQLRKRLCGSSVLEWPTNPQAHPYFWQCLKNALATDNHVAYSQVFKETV
Nature of the assay: TLR7 human peripheral blood mononuclear cell (PBMC) cell-based assay. The note with it: human PBMCs; 1 h with test antagonist, then TLR7 agonist GS-986 400 nM for 6 h; cytokines (IL-6 and IFNα) in supernatant; read-out: TLR-7 EC50. The source says:
TLR7/9 Human Peripheral Blood Mononuclear Cell (PBMC) Cell-Based Assay
Human peripheral blood mononuclear cells (PBMCs) consist of lymphocytes, monocytes and dendritic cells that express TLR7, TLR8 and TLR9. These cells respond to TLR7, TLR8 and TLR9 ligand stimulation and produce cytokines and chemokines in vitro and in vivo. Human PBMCs are therefore suitable to be used in a cell-based assay to assess the in vitro potency of a TLR 7, 8, and/or 9 antagonist.
Cryopreserved human PBMCs from healthy donors were thawed and resuspended in RPMI-1640 media with L-glutamine (Corning) supplemented with 10% Fetal Bovine Serum (Hyclone) and 1× Penicillin-Streptomycin (Corning). After counting, the cell density was adjusted to 2 million cells/ml and incubated for 1 hour at 37° C., 5% CO2 for recovery. Following the recovery, the cells were plated by adding 50 μl per well (100,000 cells) to 384-well cell culture plates (Greiner) containing 250 nl of test antagonists in 100% DMSO per well, in a 10 points dose response in quadruplicates. PBMCs were incubated in the presence of test antagonists for one hour at 37° C., 5% CO2 before being stimulated with a TLR7 or TLR9 agonist. GS-986 (Gilead Sciences) was used as the TLR7 agonist at a final concentration of 400 nM. ODN-2216 (InvivoGen) was used as the TLR9 agonist at a final concentration of 3 μM. PBMCs were incubated in the presence of the test antagonist and the TLR7 (or TLR9) agonist for an additional 6 hours at 37° C., 5% CO2. At the end of the incubation, the cell culture plates were centrifuged at 500 g for 5 min, and the cell culture supernatant was collected. The level of cytokines (IL-6 and IFNα) in the supernatant was measured by electrochemiluminescence immunoassays (Mesoscale Discovery) following manufacturer's recommended protocols. The level of cytokine measured was plotted against the test antagonist concentration and fitted to a sigmoidal function to determine the EC50, which are shown below in Table 6.

For assay [2], the target named is T2, TLR8 (Homo sapiens, UniProt Q9NR97).
T2 construct: Human peripheral blood mononuclear cells (PBMCs) consist of lymphocytes, monocytes and dendritic cells that express TLR7, TLR8 and TLR9; endogenous in cells; host or cells: cryopreserved human PBMCs from healthy donors
T2 sequence (Q9NR97 27-1041): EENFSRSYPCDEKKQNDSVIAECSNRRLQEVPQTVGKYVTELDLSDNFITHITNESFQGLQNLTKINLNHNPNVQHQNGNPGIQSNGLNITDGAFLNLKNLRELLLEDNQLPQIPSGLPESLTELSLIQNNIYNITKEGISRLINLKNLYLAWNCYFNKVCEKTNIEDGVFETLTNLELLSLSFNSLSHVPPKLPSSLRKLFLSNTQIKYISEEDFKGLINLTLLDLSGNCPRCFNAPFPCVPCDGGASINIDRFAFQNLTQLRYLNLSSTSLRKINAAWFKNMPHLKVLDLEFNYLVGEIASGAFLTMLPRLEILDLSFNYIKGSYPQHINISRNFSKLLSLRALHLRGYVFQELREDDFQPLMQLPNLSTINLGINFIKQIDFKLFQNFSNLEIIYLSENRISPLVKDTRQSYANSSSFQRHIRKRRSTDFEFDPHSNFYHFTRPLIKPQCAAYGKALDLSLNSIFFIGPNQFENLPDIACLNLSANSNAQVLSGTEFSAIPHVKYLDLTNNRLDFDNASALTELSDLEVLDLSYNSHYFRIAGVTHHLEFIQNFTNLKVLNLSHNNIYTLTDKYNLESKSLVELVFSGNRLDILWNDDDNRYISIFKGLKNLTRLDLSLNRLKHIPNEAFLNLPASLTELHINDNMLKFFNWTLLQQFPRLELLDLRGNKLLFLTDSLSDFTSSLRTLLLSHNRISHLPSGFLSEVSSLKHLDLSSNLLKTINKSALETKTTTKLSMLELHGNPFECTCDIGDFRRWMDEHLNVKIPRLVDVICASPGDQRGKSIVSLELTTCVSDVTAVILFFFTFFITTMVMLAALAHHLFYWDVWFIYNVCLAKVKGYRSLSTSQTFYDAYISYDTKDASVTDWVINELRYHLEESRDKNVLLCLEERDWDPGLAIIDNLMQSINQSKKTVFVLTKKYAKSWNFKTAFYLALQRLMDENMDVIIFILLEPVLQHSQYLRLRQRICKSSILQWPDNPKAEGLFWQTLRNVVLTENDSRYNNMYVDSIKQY
As to the kind of experiment: TLR8 human peripheral blood mononuclear cell (PBMC) cell-based assay. The note with it: human PBMCs; 1 h with antagonist, then TLR8 agonist Compound A 800 nM for 6 h; cytokines (TNFa and IL12p40) in supernatant; read-out: TLR-8 EC50. On the procedure: TLR8 Human Peripheral Blood Mononuclear Cell (PBMC) Cell-Based Assay
Cryopreserved human PBMCs from healthy donors were thawed and resuspended in RPMI-1640 media with L-glutamine (Corning) supplemented with 10% Fetal Bovine Serum (Hyclone) and 1× Penicillin-Streptomycin (Corning). After counting, the cell density was adjusted to 2 million cells/ml and incubated for 1 hour at 37° C., 5% CO2 for recovery. Following the recovery, the cells were plated by adding 50 μl per well (100,000 cells) to 384-well cell culture plates (Greiner) containing 250 nl of test antagonists in 100% DMSO per well, in a 10 points dose response in quadruplicates. PBMCs were incubated in the presence of antagonists for one hour at 37° C., 5% CO2 before being stimulated with TLR8 agonist. Compound A (Gilead Sciences, U.S. Pat. No. 10,285,990) was used as the TLR8 agonist at a final concentration of 800 nM. PBMCs were incubated in the presence of antagonist and the TLR8 agonist for an additional 6 hours at 37° C., 5% CO2. At the end of the incubation, the cell culture plates were centrifuged at 500 g for 5 min, and the cell culture supernatant was collected. The level of cytokines (TNFa and IL12p40) in the supernatant was measured by electrochemiluminescence immunoassays (Mesoscale Discovery) following manufacturer's recommended protocols. The level of cytokine measured was plotted against the antagonist concentration and fitted to a sigmoidal function to determine the EC50, which are shown below in Table 6.

As a reminder, the EC50 is the midpoint of the concentration-response curve.

Regarding `Cc1c(C2CCN(C(=O)[C@H]3C[C@H](F)CN3)CC2)sc2[nH]c(-c3cn4ncnc4c4c3CCC4)c(C(C)C)c12` [Example 17], the figures for the EC50 in assay [1] and in assay [2] were 0.68 nM and 15.2 nM, respectively.
The matching figures for `CO[C@H]1CN[C@@H](C(=O)N2CCC(c3sc4[nH]c(-c5cn6ncnc6c6c5CCC6)c(C(C)C)c4c3C)CC2)C1` [Example 18]: 0.44 nM and 4.42 nM.
The matching figures for `CO[C@@H]1CN[C@@H](C(=O)N2CCC(c3sc4[nH]c(-c5cn6ncnc6c6c5CCC6)c(C(C)C)c4c3C)CC2)C1` [Example 19]: 0.14 nM and 5.42 nM.
The matching figures for `Cc1c(C2CCN(C(=O)C3(N4CCOCC4)CC3)CC2)sc2[nH]c(-c3cn4ncnc4c4c3CCC4)c(C(C)C)c12` [Example 20]: 4.63 nM and 22.3 nM.
For the molecule `Cc1c(-c2ccc(N3CCNCC3)cc2)sc2[nH]c(-c3cn4ncnc4c4c3CCC4)c(C(C)C)c12` [Example 21, 5-(8,9-dihydro-7H-cyclopenta[c][1,2,4]triazolo[1,5-a]pyridin-6-yl)-4-isopropyl-3-methyl-2-(4-(piperazin-1-yl)phenyl)-6H-thieno[2,3-b]pyrrole], the EC50 in assay [1] turned out to be 0.51 nM; in assay [2], 1.32 nM.
The matching figures for `Cc1c(-c2ccc(N3CCNCC3)nc2)sc2[nH]c(-c3cn4ncnc4c4c3CCC4)c(C(C)C)c12` [Example 22]: 0.23 nM and 0.66 nM.
In the same order, the values of `Cc1c(-c2cn(C3CCNCC3)nn2)sc2[nH]c(-c3cn4ncnc4c4c3CCC4)c(C(C)C)c12` [Example 24] are 0.94 nM and 0.21 nM.
On to `Cc1c(C2CCN(C(=O)[C@H]3C[C@@]4(CNCCO4)C3)CC2)sc2[nH]c(-c3cn4ncnc4c4c3CCC4)c(C(C)C)c12` [Example 25], for which the EC50 in assay [1] came to 0.05 nM; in assay [2], 1.38 nM.
The matching figures for `Cc1c(C2CCC(N3CC4(CCNC4=O)C3)CC2)sc2[nH]c(-c3cn4ncnc4c4c3CCC4)c(C(C)C)c12` (stereo not shown) [Example 27]: 0.26 nM and 2.55 nM.
The matching figures for `Cc1c(C2CCC(N3CC(C)(O)C3)CC2)sc2[nH]c(-c3cn4ncnc4c4c3CCC4)c(C(C)C)c12` (stereo not shown) [Example 28]: 0.15 nM and 1.57 nM.
In the same order, the values of `Cc1c(C2CCC(N3CC4(COC4)C3)CC2)sc2[nH]c(-c3cn4ncnc4c4c3CCC4)c(C(C)C)c12` (stereo not shown) [Example 29] are 0.1 nM and 1 nM.
Take `Cc1c(C2CCC(N3CC4(CCN(C)C4=O)C3)CC2)sc2[nH]c(-c3cn4ncnc4c4c3CCC4)c(C(C)C)c12` (stereo not shown) [Example 30]: the results for the EC50 in assay [1] and in assay [2] were 0.86 nM and 1.29 nM, respectively.
The matching figures for `Cc1c(C2CCN(C(=O)[C@H]3C[C@@H](O)CN3)CC2)sc2[nH]c(-c3cn4ncnc4c4c3CCC4)c(C(C)C)c12` [Example 31]: 1.33 nM and 6.38 nM.
The matching figures for `Cc1c(C2CCN(C(=O)[C@H]3C[C@H](O)CN3)CC2)sc2[nH]c(-c3cn4ncnc4c4c3CCC4)c(C(C)C)c12` [Example 32]: 1.5 nM and 11.3 nM.
In the same order, the values of `CC(C)c1c(-c2cn3ncnc3c3c2CCC3)[nH]c2sc(C3CCN(C(=O)[C@H]4COCCN4)CC3)cc12` [Example 33] are 2.33 nM and 7.57 nM.
In the case of `CC(C)c1c(-c2cn3ncnc3c3c2CCC3)[nH]c2sc(C3CCN(CC(N)=O)CC3)cc12` [Example 34], the figures for the EC50 in assay [1] and in assay [2] were 0.58 nM and 1.57 nM, respectively.
In the same order, the values of `Cc1c(C2CCNCC2)sc2[nH]c(-c3cn4ncnc4c4c3CCO4)c(C(C)C)c12` [Example 35] are 0.33 nM and 7.88 nM.
For `Cc1c(C2CCN(CC(N)=O)CC2)sc2[nH]c(-c3cn4ncnc4c4c3CCO4)c(C(C)C)c12` [Example 36], the values for the EC50 in assay [1] and in assay [2] were 4.5 nM and 27.6 nM, respectively.
Take `Cc1c(C2CCN(C(=O)[C@H]3COCCN3)CC2)sc2[nH]c(-c3cn4ncnc4c4c3CCO4)c(C(C)C)c12` [Example 37]: the figures for the EC50 in assay [1] and in assay [2] were 2.95 nM and 24.5 nM, respectively.
In the same order, the values of `Cc1c([C@@H]2C[C@@H]3C[C@H]2CN3CC(N)=O)sc2[nH]c(-c3cn4ncnc4c4c3CCO4)c(C(C)C)c12` [Example 38] are 0.58 nM and 0.81 nM.
